The values that follow are results of earlier work, collected in publication PMC4001449, “Thienoquinolines as Novel Disruptors of the PKCε/RACK2 Protein–Protein Interaction” (Journal of Medicinal Chemistry, 2014).

Conditions in all cases: cited from earlier work
One data set has as its target ribonucleotide reductase. Set-up: method as in PMID 11668483.
Another data set deals with T1, PKCε (Homo sapiens, UniProt Q02156).
T1 sequence (Q02156 1-737): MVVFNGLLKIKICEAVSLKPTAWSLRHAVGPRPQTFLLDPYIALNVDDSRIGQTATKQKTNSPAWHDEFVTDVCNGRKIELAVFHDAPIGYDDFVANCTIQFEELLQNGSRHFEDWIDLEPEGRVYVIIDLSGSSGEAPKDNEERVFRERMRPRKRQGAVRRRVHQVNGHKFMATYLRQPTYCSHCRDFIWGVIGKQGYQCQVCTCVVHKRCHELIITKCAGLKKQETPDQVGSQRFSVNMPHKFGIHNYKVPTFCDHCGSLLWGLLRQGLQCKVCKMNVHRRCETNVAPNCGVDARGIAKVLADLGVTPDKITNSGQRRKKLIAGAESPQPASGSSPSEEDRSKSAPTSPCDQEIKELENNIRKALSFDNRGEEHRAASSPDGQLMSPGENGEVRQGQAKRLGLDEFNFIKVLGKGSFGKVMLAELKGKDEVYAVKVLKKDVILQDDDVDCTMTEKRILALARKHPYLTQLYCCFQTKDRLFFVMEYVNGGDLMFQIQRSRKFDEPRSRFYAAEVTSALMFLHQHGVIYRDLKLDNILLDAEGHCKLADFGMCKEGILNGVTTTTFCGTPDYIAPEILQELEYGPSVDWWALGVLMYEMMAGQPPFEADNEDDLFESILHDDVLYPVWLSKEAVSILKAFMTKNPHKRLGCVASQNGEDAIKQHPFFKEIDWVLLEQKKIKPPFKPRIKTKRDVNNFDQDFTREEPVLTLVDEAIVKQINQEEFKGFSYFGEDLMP
Further details: method as in PMID 21186251.

For another data set, the target named is PKCη (Homo sapiens, UniProt P24723). Further details: method as in PMID 21186251.
Sequence of PKCη (P24723 whole entry): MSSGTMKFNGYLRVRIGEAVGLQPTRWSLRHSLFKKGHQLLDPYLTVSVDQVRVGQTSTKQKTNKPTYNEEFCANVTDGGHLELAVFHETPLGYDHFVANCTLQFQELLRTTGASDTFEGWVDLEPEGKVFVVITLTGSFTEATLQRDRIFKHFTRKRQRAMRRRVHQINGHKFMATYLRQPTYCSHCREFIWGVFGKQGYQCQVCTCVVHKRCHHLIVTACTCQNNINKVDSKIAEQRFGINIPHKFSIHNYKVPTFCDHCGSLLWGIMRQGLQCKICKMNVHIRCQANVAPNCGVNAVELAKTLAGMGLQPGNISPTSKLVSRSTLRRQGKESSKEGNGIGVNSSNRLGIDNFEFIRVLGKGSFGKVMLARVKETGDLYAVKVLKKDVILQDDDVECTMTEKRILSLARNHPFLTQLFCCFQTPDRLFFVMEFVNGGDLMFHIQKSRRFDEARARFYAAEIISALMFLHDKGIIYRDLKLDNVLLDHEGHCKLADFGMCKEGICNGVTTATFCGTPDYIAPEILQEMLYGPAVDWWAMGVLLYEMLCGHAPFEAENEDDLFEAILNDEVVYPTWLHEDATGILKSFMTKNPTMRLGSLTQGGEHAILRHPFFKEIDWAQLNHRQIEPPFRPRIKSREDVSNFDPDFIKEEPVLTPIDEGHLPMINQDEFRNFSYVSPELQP
The test system of data set [1] is interaction of PKCι and its adaptor protein Par6. Set-up: method as in PMID 16861740.

For the compound hydroxyurea, the concentration for half-maximal inhibition (IC50) on ribonucleotide reductase was 37.2 µM.

On to `O=C1NC(=O)N(Cc2ccccc2)C(=O)/C1=C\c1ccc2c(c1)OCO2` [BAS 02104951], for which the “Direct inhibition of PKCε” value at PKCε is recorded as “inhibited”. Besides, on PKCη, the “Direct inhibition of PKCη” value is on record as “inhibited”.

As to `O=C(O)CC([S-])C(=O)O.[Au+]` (stereo not shown) [aurothiomalate], in data set [1], the “Active concentration range, prevention of PKCι/Par6 interaction” value is roughly 10 µM.
